Inconclusive results and toxic doses are left out.

For this assay, the system named is L1210 leukemia ip in BDF1 mice, survival T/C. Description: NCI In Vivo Anticancer Drug Screen. Data for tumor model L1210 Leukemia (intraperitoneal) in B6D2F1 (BDF1) mice. The following applies: endpoint: mean survival time, higher = longer survival. The gist of the method:
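Transplanted-tumor mice were given test agent; controls received vehicle only. Survival readings from the two groups were divided (treated over control).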

Where [1] appears, read: dose: 100.0 mg/kg/injection, schedule: Q01DX009 (ip), vehicle: saline sonified.
Setting [2] is: dose: 200.0 mg/kg/injection, schedule: Q01DX009 (ip), vehicle: saline sonified.
The mark [3] stands for this setting: dose: 100.0 mg/kg/injection, schedule: Q01DX001 (ip), vehicle: saline.
[4] abbreviates: dose: 200.0 mg/kg/injection, schedule: Q01DX001 (ip), vehicle: saline.
Setting [5] is: dose: 400.0 mg/kg/injection, schedule: Q01DX001 (ip), vehicle: saline.
Where [6] appears, read: dose: 100.0 mg/kg/injection, schedule: Q04DX002 (ip), vehicle: Klucel (hydroxypropylcellulose) (HPC).
[7] abbreviates: dose: 200.0 mg/kg/injection, schedule: Q04DX002 (ip), vehicle: Klucel (hydroxypropylcellulose) (HPC).
Where [8] appears, read: dose: 400.0 mg/kg/injection, schedule: Q04DX002 (ip), vehicle: Klucel (hydroxypropylcellulose) (HPC).
Where [9] appears, read: dose: 100.0 mg/kg/injection, schedule: Q01DX001 (ip), vehicle: carboxymethylcellulose (CMC).
Setting [10] is: dose: 400.0 mg/kg/injection, schedule: Q01DX001 (ip), vehicle: carboxymethylcellulose (CMC).
[11] abbreviates: dose: 100.0 mg/kg/injection, schedule: Q01DX009 (ip), vehicle: saline with Tween-80.
Setting [12] is: dose: 10.0 mg/kg/injection, schedule: Q01DX001 (ip), vehicle: saline.
Setting [13] is: dose: 20.0 mg/kg/injection, schedule: Q01DX001 (ip), vehicle: saline.
Where [14] appears, read: dose: 40.0 mg/kg/injection, schedule: Q01DX001 (ip), vehicle: saline.

Consider `CCCCCCCCCCCCO[P+](=O)OCCCCCCCCCCCC`, for which the T/C is, setting by setting: under setting [1], 93 % of control; (dose: 100.0 mg/kg/injection, schedule: Q04DX003 (ip), vehicle: saline) 95 % of control; under setting [2], 93 % of control; (dose: 200.0 mg/kg/injection, schedule: Q04DX003 (ip), vehicle: saline) 100 % of control; (dose: 222.0 mg/kg/injection, schedule: Q01DX Z (ip), vehicle: methylcellulose (MC)) 96 % of control; (dose: 333.0 mg/kg/injection, schedule: Q01DX Z (ip), vehicle: methylcellulose (MC)) 95 % of control. Also, under “dose: 400.0 mg/kg/injection, schedule: Q04DX003 (ip), vehicle: saline”, the T/C was 90 % of control.

As for `O=C(O)C(O)Cc1ccc(O)cc1` (stereo not drawn), the T/C was 90 % of control under setting [3], 92 % of control under setting [4] and 97 % of control under setting [5].

As for `OC(CCN1CCCCC1)(c1cccs1)C(O)(CCN1CCCCC1)c1cccs1` (stereo not drawn), the T/C under setting [3] was 97 % of control and the T/C under setting [4] is 90 % of control.

`COc1cc2c(cc1OC)NCc1cccn1C2`: the T/C by setting is: (dose: 25.0 mg/kg/injection, schedule: Q04DX002 (ip), vehicle: saline with Tween-80) 101 % of control; (dose: 50.0 mg/kg/injection, schedule: Q04DX002 (ip), vehicle: saline with Tween-80) 97 % of control; (dose: 100.0 mg/kg/injection, schedule: Q04DX002 (ip), vehicle: saline with Tween-80) 105 % of control.

As for `COc1cccc2c1CCC1=C2CCC2CC(=O)CCC12C` (stereo not drawn), the T/C was 98 % of control (dose: 100.0 mg/kg/injection, schedule: Q01DX001 (sc), vehicle: steriod suspending solution); 100 % of control (dose: 200.0 mg/kg/injection, schedule: Q01DX001 (sc), vehicle: steriod suspending solution); 100 % of control (dose: 400.0 mg/kg/injection, schedule: Q01DX001 (sc), vehicle: steriod suspending solution).

As to `COc1ccc(NC(=O)COc2ccc(Cl)cc2Cl)cc1`, the T/C was 108 % of control under setting [6], 92 % of control under setting [7] and 94 % of control under setting [8].

Take `NC(=O)NC1C=CC=CC=C1`: the T/C runs as follows: (dose: 100.0 mg/kg/injection, schedule: Q01DX001 (ip), vehicle: acetone) 107 % of control; (dose: 200.0 mg/kg/injection, schedule: Q01DX001 (ip), vehicle: acetone) 93 % of control; (dose: 400.0 mg/kg/injection, schedule: Q01DX001 (ip), vehicle: acetone) 98 % of control.

Consider `CC(C)C1c2ccccc2C(=O)C1C(N)=O` (stereo not drawn), for which the T/C is 90 % of control under setting [9]; 100 % of control (dose: 200.0 mg/kg/injection, schedule: Q01DX001 (ip), vehicle: carboxymethylcellulose (CMC)); 93 % of control under setting [10].

Turning to `O=C(O)c1c[nH]c2c(Cl)cc(Cl)cc2c1=O`, the T/C under setting [4] is 94 % of control and the T/C under setting [5] is 87 % of control.

`Cc1nonc1C`: the T/C is, setting by setting: (dose: 31.2 mg/kg/injection, schedule: Q01DX Z (ip), vehicle: other) 100 % of control; (dose: 62.5 mg/kg/injection, schedule: Q01DX Z (ip), vehicle: other) 90 % of control; (dose: 100.0 mg/kg/injection, schedule: Q04DX003 (ip), vehicle: Klucel (hydroxypropylcellulose) (HPC)) 103 % of control; (dose: 125.0 mg/kg/injection, schedule: Q01DX Z (ip), vehicle: other) 88 % of control; (dose: 200.0 mg/kg/injection, schedule: Q04DX003 (ip), vehicle: Klucel (hydroxypropylcellulose) (HPC)) 98 % of control; (dose: 250.0 mg/kg/injection, schedule: Q01DX Z (ip), vehicle: other) 90 % of control. Further, the T/C (dose: 400.0 mg/kg/injection, schedule: Q04DX003 (ip), vehicle: Klucel (hydroxypropylcellulose) (HPC)) was 106 % of control.

As for `CC(CCl)(CCl)CCl`, the T/C by setting is: (dose: 50.0 mg/kg/injection, schedule: Q01DX009 (ip), vehicle: saline sonified) 96 % of control; (dose: 100.0 mg/kg/injection, schedule: Q01DX001 (ip), vehicle: saline sonified) 99 % of control; under setting [1], 106 % of control; (dose: 200.0 mg/kg/injection, schedule: Q01DX001 (ip), vehicle: saline sonified) 96 % of control; under setting [2], 94 % of control.

Consider `CC([NH-])C(C)[NH-].[Cl][Pt+2][Cl]` (stereo not drawn), for which the T/C by setting is: (dose: 3.1 mg/kg/injection, schedule: Q04DX002 (ip), vehicle: Klucel (hydroxypropylcellulose) (HPC)) 124 % of control; (dose: 6.25 mg/kg/injection, schedule: Q04DX002 (ip), vehicle: Klucel (hydroxypropylcellulose) (HPC)) 153 % of control; (dose: 25.0 mg/kg/injection, schedule: Q04DX002 (ip), vehicle: Klucel (hydroxypropylcellulose) (HPC)) 92 % of control.

`Cc1cs[n+](C)c1`: the T/C under setting [3] was 94 % of control and the T/C under setting [4] was 97 % of control.

`CCCCCCC(=O)N1C(C)CCCC1C` (stereo not drawn): the T/C is, setting by setting: (dose: 100.0 mg/kg/injection, schedule: Q04DX002 (ip), vehicle: saline) 107 % of control; (dose: 200.0 mg/kg/injection, schedule: Q04DX002 (ip), vehicle: saline) 103 % of control; (dose: 400.0 mg/kg/injection, schedule: Q04DX002 (ip), vehicle: saline) 92 % of control.

In the case of `Cc1[nH]nc2c(NO)ncnc12`, the T/C by setting is: (dose: 100.0 mg/kg/injection, schedule: Q01DX001 (ip), vehicle: other) 98 % of control; (dose: 200.0 mg/kg/injection, schedule: Q01DX001 (ip), vehicle: other) 98 % of control; (dose: 400.0 mg/kg/injection, schedule: Q01DX001 (ip), vehicle: other) 102 % of control.

Regarding `NC(N)=NNc1ccccc1`, the T/C (dose: 25.0 mg/kg/injection, schedule: Q01DX009 (ip), vehicle: saline with Tween-80) was 115 % of control; the T/C (dose: 50.0 mg/kg/injection, schedule: Q01DX009 (ip), vehicle: saline with Tween-80) is 107 % of control; the T/C (dose: 50.0 mg/kg/injection, schedule: Q01DX009 (ip), vehicle: saline) was 95 % of control; the T/C under setting [11] was 86 % of control; the T/C (dose: 100.0 mg/kg/injection, schedule: Q01DX009 (ip), vehicle: saline) was 97 % of control.

With `CC(C)CCCC(C)C1CCC2C3CC=C4C=C(OC(=O)c5ccccc5)CCC4(C)C3CCC12C` (stereo not drawn), the T/C was 90 % of control under setting [11]; 97 % of control (dose: 100.0 mg/kg/injection, schedule: Q04DX003 (ip), vehicle: saline with Tween-80); 87 % of control (dose: 200.0 mg/kg/injection, schedule: Q01DX009 (ip), vehicle: saline with Tween-80); 95 % of control (dose: 200.0 mg/kg/injection, schedule: Q04DX003 (ip), vehicle: saline with Tween-80); 95 % of control (dose: 400.0 mg/kg/injection, schedule: Q01DX009 (ip), vehicle: saline with Tween-80); 87 % of control (dose: 400.0 mg/kg/injection, schedule: Q04DX003 (ip), vehicle: saline with Tween-80).

Regarding `Nc1ncccc1O`, the T/C was 105 % of control under setting [12], 95 % of control under setting [13] and 94 % of control under setting [14].

As for `O=C(/C=C\c1ccc([N+](=O)[O-])cc1)NCCCCNC(=O)/C=C/c1ccc([N+](=O)[O-])cc1`, the T/C under setting [3] is 96 % of control.

As for `NC(=S)N=Nc1c(O)cc(O)c2[nH]c(=O)ccc12`, the T/C reads like this: (dose: 5.0 mg/kg/injection, schedule: Q01DX001 (ip), vehicle: saline) 101 % of control; under setting [12], 101 % of control; under setting [13], 103 % of control; under setting [14], 105 % of control; (dose: 80.0 mg/kg/injection, schedule: Q01DX001 (ip), vehicle: saline) 108 % of control.

Consider `O=C1/C(=C\c2ccc([N+](=O)[O-])cc2)N2CCC1CC2`, for which the T/C under setting [6] was 102 % of control, the T/C under setting [7] was 94 % of control and the T/C under setting [8] was 105 % of control.

On to `Nc1nc(-c2ccccc2)c(CCCOc2ccc([N+](=O)[O-])cc2)c(=O)[nH]1`, for which the T/C reads like this: (dose: 50.0 mg/kg/injection, schedule: Q01DX001 (ip), vehicle: carboxymethylcellulose (CMC)) 88 % of control; under setting [9], 91 % of control; under setting [10], 88 % of control.

The values above are taken from PubChem BioAssay AID248 (DTP/NCI, 2004).
